# Laboratory results: patent US6680293B2, “Use of isolated domains of type IV collagen to modify cell and tissue interactions” (Kansas University Medical Center, priority 1994, dated 2004)
# How the values were obtained:
# Hydra cell aggregates = assay: Hydra cell aggregate development / morphogenesis blocking; type: cell-based, Hydra vulgarie; conditions: 10 μM, Time 0 to 96 hr
# Protocol: All experiments utilized Hydra vulgarie (previously named Hydra attenuata). Animals were cultured as described previously (Sarras et al., 1991a, supra) and were not fed for 24 hr prior to use.
# Hydra cell aggregates were prepared according to Gierer et al., (1972, supra) with modification described by Sans et al., (1993, supra). They were incubated either in microtiter plates (NUNS, Denmark) with one aggregate/well/10 μl incubation solution or in 96-well plates (Falcon) with three to five aggregates/well/50 μl incubation solution. Antibiotics were used throughout all steps of aggregate preparation to assure that the aggregates used in this study were free of any symbionic bacterial populations (Sarra et al., 1993, supra). […] By 24 hr of cell pellet formation, hydra cell aggregates develop septate junctions between epithelial cells (Wood et at., 1980. J. Ultrastruc. Res. 70:104-117). These junctions prevent the introduction of macromolecules from medium into mesoglea. […]
# Criteria for morphogenesis was as follows. […] The percentage of aggregates-with head and tentacle structures at 96 hr of development was calculated and data for each group from different experiments were pooled and plotted. […] Using an ANOVA statistical test, a P value <0.05 was taken as the level of significant difference in all groups analyzed. […]
# hydra cells = assay: Inhibition of DNA synthesis in hydra cell aggregates; type: cell-based, Hydra vulgarie; conditions: 10 μM, Time 0 to 96 hr
smiles,measurement,setting,value
"NC(=O)NO [HU, hydroxyurea]",morphogenesis of hydra cell aggregates,Hydra cell aggregates,did not inhibit
same,DNA synthesis,hydra cells,completely blocked
